From PubChem BioAssay (NCI)
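Briefly, cells in 96-well plates were exposed to five compound concentrations for 48 h, and endpoints were estimated by linear interpolation. At the GI50, growth is halved. TGI denotes the concentration required for complete inhibition of growth.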

Tests used:
Assay in all cases: NCI tumour cell line growth inhibition, 48 h
MALME-3M melanoma = system: MALME-3M melanoma
NCI-H226 lung = system: NCI-H226 lung
CCRF-CEM leukemia = system: CCRF-CEM leukemia
NCI-H23 lung = system: NCI-H23 lung
OVCAR-8 ovarian = system: OVCAR-8 ovarian
SF-539 CNS = system: SF-539 CNS
HCT-15 colon = system: HCT-15 colon
NCI-H522 lung = system: NCI-H522 lung
DU-145 prostate = system: DU-145 prostate
MDA-MB-231 breast = system: MDA-MB-231 breast

SMILES	TGI (MALME-3M melanoma) [µM]	TGI (NCI-H226 lung) [µM]	TGI (CCRF-CEM leukemia) [µM]	TGI (NCI-H23 lung) [µM]	TGI (OVCAR-8 ovarian) [µM]	TGI (SF-539 CNS) [µM]	TGI (HCT-15 colon) [µM]	TGI (NCI-H522 lung) [µM]	GI50 (NCI-H522 lung) [µM]	GI50 (SF-539 CNS) [µM]	GI50 (HCT-15 colon) [µM]	GI50 (MALME-3M melanoma) [µM]	GI50 (NCI-H226 lung) [µM]	GI50 (CCRF-CEM leukemia) [µM]	GI50 (NCI-H23 lung) [µM]	GI50 (OVCAR-8 ovarian) [µM]	GI50 (DU-145 prostate) [µM]	TGI (DU-145 prostate) [µM]	GI50 (MDA-MB-231 breast) [µM]	TGI (MDA-MB-231 breast) [µM]
O=C(CC1SC(=Nc2ccccc2Cl)NC1=O)Nc1ccc(Cl)cc1Cl (centres undefined)	> 100	> 100	> 100	> 100	> 100	–	–	–	–	–	–	–	–	–	–	–	–	–	–	–
CC1(c2ccccc2Cl)C(C#N)C(=O)NC(=O)C1C#N (centres undefined)	> 100	98	> 100	> 100	> 100	> 100	> 100	54	–	–	–	–	–	–	–	–	–	–	–	–
O=S(=O)(/C=C/C(=C/c1ccccc1)S(=O)(=O)c1ccccc1)c1ccccc1	3.3	–	3.05	3.56	3.08	3.15	3.3	2.85	–	–	–	–	–	–	–	–	–	–	–	–
O=c1[nH]cc(F)c(=O)n1C1OC(CO)C(O)C1O (centres undefined)	> 100	> 100	> 100	> 100	> 100	–	> 100	> 100	–	–	–	–	–	–	–	–	–	–	–	–
Cc1ccccc1NC(=O)C(=O)C(C#N)c1ccccc1C (centres undefined)	> 100	> 100	89.8	> 100	> 100	> 100	> 100	> 100	–	–	–	–	–	–	–	–	–	–	–	–
N#Cc1ccc(C=NC23CC4CC(CC(C4)C2)C3)cc1	> 100	> 100	> 100	> 100	> 100	> 100	> 100	> 100	–	–	–	–	–	–	–	–	–	–	–	–
CCOC(=O)/C(C#N)=C(O)/C(=C\c1ccc(Br)cc1)NC(=O)c1ccccc1	> 100	> 100	> 100	> 100	> 100	> 100	> 100	–	–	–	–	–	–	–	–	–	–	–	–	–
CC(C)=CC(=O)N(C)C1C2CN3CCC(O2)C13 (centres undefined)	> 100	> 100	> 100	> 100	> 100	> 100	> 100	> 100	–	–	–	–	–	–	–	–	–	–	–	–
Cc1ccc(S(=O)(=O)N/N=C(/CC(=O)c2c(C)n([O-])c3ccccc3[n+]2=O)C(=O)Nc2ccccc2C)cc1	> 100	> 100	–	> 100	–	> 100	> 100	> 100	–	–	–	–	–	–	–	–	–	–	–	–
CCCCCCCCCCCCC(Br)C(=O)NCC(N)=O (centres undefined)	28	8.79	66.3	14.7	33.6	27.7	28.7	5.22	–	–	–	–	–	–	–	–	–	–	–	–
C=C1CCC2[C@@H](CCC3[C@]2(C)CCC[C@]3(C)C(=O)OC)C1CC=O (some centres undefined)	37.5	37.2	35.2	35.4	37.3	31.1	43.6	31.8	16.3	–	–	–	–	–	–	–	–	–	–	–
O=C(O)/C=C/c1nc2ccccc2c(=O)o1	–	> 100	> 100	> 100	> 100	> 100	> 100	> 100	–	–	–	–	–	–	–	–	–	–	–	–
C=CNC(=O)NC(=O)CSc1nnc(-c2ccccc2NC(=O)C(F)(F)F)c(=O)[nH]1	28.8	> 100	> 100	> 100	> 100	> 100	> 100	> 100	–	–	–	–	–	–	–	–	–	–	–	–
C[CH2][Sn]([CH2]C)([O]C(=O)c1ccccc1OC)[O][Sn]([CH2]C)([CH2]C)[O]C(=O)c1ccccc1OC	> 100	> 100	> 100	> 100	> 100	> 100	> 100	14.7	3.02	> 100	> 100	27.6	> 100	41.2	> 100	> 100	–	–	–	–
CCN(CC)CCCCCCNc1cc(OC)cc2cccnc12	3.93	43.2	4.97	30.3	8.99	3.53	3.78	4.76	2.17	1.84	1.9	2.03	21.3	2.39	13.3	3.04	1.8	3.65	–	–
COc1cc2c(cc1OCCCCN1CCN(C(=S)SCCC(C#N)(c3ccccc3)c3ccccc3)CC1)N=C[C@@H]1CCCN1C2=O	3.04	3.29	> 100	–	> 100	3.27	3.9	0.642	0.196	1.69	1.41	1.36	1.26	0.532	–	1.59	–	–	1.53	4.73

SMILES	TGI (MALME-3M melanoma) [µM]	TGI (NCI-H226 lung) [µM]	TGI (CCRF-CEM leukemia) [µM]	TGI (NCI-H23 lung) [µM]	TGI (OVCAR-8 ovarian) [µM]	TGI (SF-539 CNS) [µM]	TGI (HCT-15 colon) [µM]	TGI (NCI-H522 lung) [µM]	GI50 (NCI-H522 lung) [µM]	GI50 (SF-539 CNS) [µM]	GI50 (HCT-15 colon) [µM]	GI50 (MALME-3M melanoma) [µM]	GI50 (NCI-H226 lung) [µM]	GI50 (CCRF-CEM leukemia) [µM]	GI50 (NCI-H23 lung) [µM]	GI50 (OVCAR-8 ovarian) [µM]	GI50 (DU-145 prostate) [µM]	TGI (DU-145 prostate) [µM]	GI50 (MDA-MB-231 breast) [µM]	TGI (MDA-MB-231 breast) [µM]
O=C1Nc2ccccc2N=CC1NC(=O)C(c1ccccc1)c1ccccc1 (centres undefined)	> 100	> 100	> 100	> 100	> 100	> 100	> 100	> 100	–	–	–	–	–	–	–	–	–	–	–	–
Cc1cc(C)nc(NS(=O)(=O)c2ccc(Nc3c4ccccc4nc4c(C(=O)Nc5ccc(S(=O)(=O)N=C(N)N)cc5)cccc34)cc2)n1	> 100	–	> 100	> 100	> 100	> 100	> 100	> 100	–	–	–	–	–	–	–	–	–	–	–	–
COc1ccc(-c2cc(C(=O)Nc3ccc(C)c(C)c3)nc(NC#N)n2)cc1	> 100	–	> 100	> 100	> 100	> 100	> 100	> 100	–	–	–	–	–	–	–	–	–	–	–	–
COCOCC/C=C/C=O	> 100	–	> 100	> 100	> 100	> 100	> 100	> 100	–	–	–	–	–	–	–	–	–	–	–	–
CCCCC1(C)C=C/C(=C2/C(=O)O/C(=C\C(=O)O)C2=O)O1 (centres undefined)	> 100	> 100	> 100	> 100	> 100	> 100	> 100	–	–	–	–	–	–	–	–	–	–	–	–	–
C/C(=C\c1cnc(C)s1)[C@@H]1C[C@@H]2O[C@@H]2CCC[C@H](C)[C@H](O)[C@@H](C)C(=O)C(C)(C)[C@@H](O)CC(=O)O1	–	> 100	> 100	> 100	> 100	> 100	> 100	–	–	< 0.01	< 0.01	–	–	< 0.01	< 0.01	< 0.01	< 0.01	> 100	< 0.0148	> 100
N#CC(c1ccccn1)c1nc2ccccc2[nH]1 (centres undefined)	> 100	> 100	> 100	> 100	> 100	–	–	> 100	–	–	–	–	–	–	–	–	–	–	–	–
CN(CCNCc1ccccn1)CCNCc1ccccn1	3.94	4.2	> 100	> 100	7.62	5.33	12.6	–	–	2.06	2.96	1.46	1.92	3.87	3.55	2.99	3.6	12.4	2.56	5.93
Cc1nc(C(=O)O)c2ccccc2n1	> 100	–	> 100	> 100	> 100	> 100	–	–	–	–	–	–	–	–	–	–	–	–	–	–
O=S(=O)(c1cccc(N=C=S)c1)c1cccc(N=C=S)c1	34.9	–	–	32.9	–	–	33.8	32.8	–	–	–	–	–	–	–	–	–	–	–	–
N#CC(C#N)c1ccc(C(=O)N2CCC[C@H]2CO)cc1	> 100	–	> 100	> 100	> 100	> 100	> 100	> 100	–	–	–	–	–	–	–	–	–	–	–	–
COc1cc2c(cc1OC)-c1ncc3c(OC)c(OC)c(OC)cc3c1C2	–	–	–	–	38.5	–	44.5	–	–	–	13.7	–	–	–	–	16.3	–	–	0.404	11.6
CCCCCO/N=C\c1c2c(O)c3c(O)c(C)c4c(c3c1O)C(=O)C(C)(O/C=C\C(OC)C(C)C(OC(C)=O)C(C)C(O)C(C)C(O)C(C)/C=C\C=C(\C)C(=O)N2)O4 (centres undefined)	–	–	10.2	3.44	–	3.86	3.31	–	–	1.98	1.79	–	–	2.92	1.74	–	1.93	4.29	1.75	3.2
COCCNC(=O)C1C(=O)C(=O)N(CCOC)C1=O (centres undefined)	> 100	> 100	> 100	> 100	> 100	> 100	> 100	> 100	–	–	–	–	–	–	–	–	–	–	–	–
c1ccc2cc(-c3n(Cc4ccc5ccccc5n4)c4ccccc4[n+]3Cc3ccc4ccccc4n3)ccc2c1	1.69	–	1.67	1.09	1.22	1.43	3.18	1.25	0.321	0.39	1.6	0.379	–	0.333	0.285	0.297	0.395	1.65	0.307	1.32
Cc1ccc(C)c(N2C(=O)C(=O)C(c3nc4ccccc4s3)/C(=N/NC(=O)NN)C2=O)c1 (centres undefined)	> 100	> 100	> 100	> 100	> 100	> 100	> 100	> 100	–	–	–	–	–	–	–	–	–	–	–	–
